# In article PMC12406255, “Engineering Peptide Modulators for T‑Cell Migration by Structural Scaffold Matching” (Journal of Medicinal Chemistry, 2025):
# Where two headings read alike, the source gives them in different places. Positions of bridges follow the written chain, without caps; N, C: chain ends. Residues, ends and D or L forms follow the SMILES beside them.
# What was measured:
# [1] = tested on: memory CD8+ cells (CD3+, CD8+, CD45RO+); assay type: cell-based, human; conditions: normalized to untreated control, mean ± SEM of 4-6 experiments
# Procedure: (§1) Transwell migration assays were performed similarly as published previously. HMEC-1 cells were seeded at a density of 75,000 cells per well in transwell inserts. Three days after cell seeding, the medium was changed, and the cells were stimulated with 100 ng/mL TNF-α and 20 ng/mL IFN-γ for 16–18 h. On the day of the assay, cells were washed with migration medium (serum-free RPMI medium supplemented with 0.1% BSA) to remove residual cytokines and starved for at least 1 h at 37 °C in migration medium. PBMC were starved for at least 1.5 h in migration medium before addition to the EC. For S1P and lifitegrast-treated samples, the PBMC were preincubated for at least 1.5 h at 37 °C with the ligands before addition to the EC. Pepitem and other peptides were added onto the EC monolayer and preincubated for 15–30 min at 37 °C before the addition of the PBMC. 200,000 PBMC per well were added directly on top of the EC prestimulated with pepitem or other peptides to reach a final volume of 150 μL in the donor compartments. The receiver compartments of the wells were filled with 600 μL RPMI with 20% FBS. After 4 h of migration at 37 °C, the receiver compartment with the migrated cells was collected. The migrated cells were stained with the indicated antibodies: CD3-APC (clone: OKT3, lot: B400127), CD4-PE (clone: OKT4. lot: B379180), CD8-FITC (clone: HIT8a, lot: B370193) from Biolegend and CD3-VioGreen (clone: REA613, lot: 5240502518), CD45RO-FITC (clone: REA611, lot: 5240502519), CD4-PerCP-Vio700 (clone: REA623, lot: 5240506702), CXCR3 PE-Vio615 (clone: REA232, lot: 5240506722), CD196-APC (clone: REA190, lot: 5240506717), CD8-APC-Vio770 (clone: REA734, lot: 5240303993) and CD45RO-PEVio616 (clone: REA611, lot: 5231102514) from Miltenyi Biotec (Bergisch Gladbach, Germany) and counted using precision counting beads (Biolegend) on a CytoflexS flow cytometer (BeckmanCoulter). Data was analyzed using CytExpert (Version 2.4). T cells were gated as CD3^+ cells, T cell subsets were gated as CD4^+ (CD3^+, CD4^+), CD8^+ (CD3^+, CD8^+), memory CD4^+ (CD3^+, CD4^+, CD45RO^+), memory CD8^+ (CD3^+, CD8^+, CD45RO^+) and Th1 cells (CD3^+, CD4^+, CXCR3^+, CCR6^–).
# (§2) Data were analyzed using GraphPad Prism software. EC50 values were calculated by three-parameter nonlinear regression analysis. For this, the data points were normalized to the number of migrated cells in untreated (buffer) control samples (100%), and the regression was fitted with the top constraint to 100 and the slope fixed to 1. Statistical significance is indicated in graphs as n.s. not significant, * p < 0.05; ** p < 0.01; *** p < 0.001. The statistical tests used are indicated in the respective figure captions.
# [2] = tested on: CD8+ lymphocytes (CD3+, CD8+); assay type: cell-based, human; conditions: normalized to untreated control, mean ± SEM of 4-6 experiments
# Procedure: as §1, §2
# [3] = tested on: memory CD4+ cells (CD3+, CD4+, CD45RO+); assay type: cell-based, human; conditions: normalized to untreated control, mean ± SEM of 4-6 experiments
# Procedure: as §1, §2
# [4] = tested on: CD4+ lymphocytes (CD3+, CD4+); assay type: cell-based, human; conditions: normalized to untreated control, mean ± SEM of 4-6 experiments
# Procedure: as §1, §2
# CD3+ lymphocytes = assay: cells; assay type: cell-based, human; conditions: normalized to untreated control, mean ± SEM of 4-6 experiments
# Procedure: 1 Transwell-based migration assay to study lymphocyte transendothelial migration. (A) The general principle of the transwell migration assay is depicted. Endothelial cells (EC) are seeded in transwell inserts and are incubated for 2 days to form an EC monolayer. On the day before the assay, the ECs are cytokine-stimulated to induce the expression of adhesion molecules. In the migration assay, human peripheral blood mononuclear cells (PBMC) are placed into the donor compartment of the transwell setup. After 4 h of incubation time, the migrated cells are harvested from the receiver compartment, stained with fluorescent antibodies and counted using flow cytometry. (B) PBMCs were preincubated with S1P for 1.5 h and then transferred into the donor compartment on top of the EC monolayer. […] Data are shown as mean ± SD of 3 to 5 independent experiments.
# as §1, §2
# Serum stability assay = assay type: in vitro ADME; conditions: human serum of healthy donors, lipids removed by centrifugation, 37 °C, peptide 30-60 μM from 10-fold stock in PBS, followed over 48 h, urea/TFA quench, analytical RP-HPLC peak area vs time 0, one-phase decay fit; mean ± SD, n = 2 (pepitem n = 5); read-out: Serum t 1/2 (converted)
# Procedure: Stability of peptides in human serum was measured similarly to that previously described. In short, fresh blood from healthy donors was collected in serum collection tubes (Clot Activator Tube, Becton Dickinson, Plymouth, United Kingdom, […]) and incubated at 4 °C for 2 h to allow blood clotting. The serum was separated by centrifugation at 1000 × g for 10 min. To remove lipids from the serum, an additional centrifugation step was performed at 15,000 × g for 15 min at 4 °C, after which the serum was used for the stability assays. For this, the serum was prewarmed for 10 min at 37 °C before the addition of the test compounds. Peptides were prepared at a 10-fold concentration in PBS and diluted to a final concentration between 60 and 30 μM with the serum. The serum-peptide reaction mix was incubated at 37 °C, and 40 μL aliquots were taken at the indicated time points. To stop the reaction, samples were mixed with 40 μL of 6 M urea for 10 min on ice, followed by precipitation of serum proteins by the addition of 40 μL of 20% TFA and incubation for at least 10 min on ice. The precipitate was pelleted at 15,000 × g for 15 min, and 90 μL of the supernatant was freeze-dried. The dry material was resuspended in HPLC solvent A (0.1% TFA in ddH2O). Peptide quantification was performed using analytical HPLC. The remaining peptide relative to the starting point (time point 0) was calculated by peak integration to determine the area under the peak at the designated time points and further calculated in comparison to time point 0 min, which was set as 100%. To calculate the half-life of the peptides in human serum, data points were fitted with a one-phase decay equation.
smiles,measurement,setting,value
"CC(=O)N[C@@H](CCC(=O)O)C(=O)N[C@@H](CCC(N)=O)C(=O)N[C@H]1CSSC[C@@H](C(=O)N[C@@H](CCC(=O)O)C(=O)N[C@@H](CCCCN)C(N)=O)NC(=O)[C@H](CC(N)=O)NC(=O)[C@H](CC(=O)O)NC(=O)[C@H](CC(C)C)NC(=O)[C@@H]2CSSC[C@H](NC(=O)[C@H]([C@@H](C)O)NC(=O)[C@H](C(C)C)NC(=O)[C@H](CO)NC1=O)C(=O)N[C@@H](CCC(=O)O)C(=O)N[C@@H](CCC(N)=O)C(=O)NCC(=O)N[C@@H](C)C(=O)N[C@@H](CCC(=O)O)C(=O)N[C@@H](CC(C)C)C(=O)N1CCC[C@H]1C(=O)N[C@@H](CO)C(=O)N[C@@H](CC(N)=O)C(=O)N[C@@H](CCC(=O)O)C(=O)N[C@@H](CCC(=O)O)C(=O)N[C@@H](CCCNC(=N)N)C(=O)N2 [VhTI-pep 6] (Ac-EQCSVTCEQGAELPSNEERCLDNCEK-NH2; disulfide 3-24, 7-20)","% Inhibition of cell migration compared to control, Memory CD8+",[1]; 0.1 μM,23.2 ± 4.3%
same,"% Inhibition of cell migration compared to control, Memory CD8+",[1]; 1 μM,0.6 ± 6.1%
same,"% Inhibition of cell migration compared to control, CD8+",[2]; 0.1 μM,28.0 ± 8.2%
same,"% Inhibition of cell migration compared to control, CD8+",[2]; 1 μM,1.6 ± 7.8%
same,"% Inhibition of cell migration compared to control, Memory CD4+",[3]; 0.1 μM,24.6 ± 11.6%
same,"% Inhibition of cell migration compared to control, Memory CD4+",[3]; 1 μM,14.7 ± 7.6%
same,"% Inhibition of cell migration compared to control, CD4+",[4]; 0.1 μM,19.5 ± 9.9%
same,"% Inhibition of cell migration compared to control, CD4+",[4]; 1 μM,14.6 ± 8.7%
same,"% Inhibition of cell migration compared to control, CD3+",CD3+ lymphocytes; 0.1 μM,27.0 ± 9.7%
same,"% Inhibition of cell migration compared to control, CD3+",CD3+ lymphocytes; 1 μM,14.9 ± 11.6%
same,half-life,Serum stability assay,25.8 ± 9.7 h
